The target in this experiment is T1, MRB1590(10–668) (Trypanosoma brucei, UniProt Q57ZF2).
T1 construct: gene Tb03.30P12.70; residues 10-668 (full length 668, 72 kDa); homodimer, ATP site formed by both subunits
T1 sequence (Q57ZF2 10-668): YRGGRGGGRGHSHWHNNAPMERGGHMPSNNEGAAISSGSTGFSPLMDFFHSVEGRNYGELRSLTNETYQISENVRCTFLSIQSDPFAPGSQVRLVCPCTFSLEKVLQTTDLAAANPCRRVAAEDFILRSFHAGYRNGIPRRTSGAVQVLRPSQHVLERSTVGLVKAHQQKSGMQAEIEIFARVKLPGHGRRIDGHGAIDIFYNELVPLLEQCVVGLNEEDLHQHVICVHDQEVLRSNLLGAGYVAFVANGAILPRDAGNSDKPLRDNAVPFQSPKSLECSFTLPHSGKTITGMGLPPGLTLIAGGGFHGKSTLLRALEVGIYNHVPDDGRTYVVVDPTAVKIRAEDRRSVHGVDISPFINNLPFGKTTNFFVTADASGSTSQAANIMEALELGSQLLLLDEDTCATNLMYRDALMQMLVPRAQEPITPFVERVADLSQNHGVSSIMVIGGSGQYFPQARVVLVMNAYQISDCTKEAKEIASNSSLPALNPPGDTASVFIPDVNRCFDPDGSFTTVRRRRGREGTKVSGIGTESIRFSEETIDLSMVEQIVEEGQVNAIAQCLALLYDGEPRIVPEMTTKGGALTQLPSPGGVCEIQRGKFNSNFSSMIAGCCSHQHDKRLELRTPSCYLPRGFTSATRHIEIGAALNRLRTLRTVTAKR
As to the kind of experiment: ITC. The experiment is classed as binding.

As to `Nc1ncnc2c1ncn2[C@@H]1O[C@H](COP(=O)(O)OP(=O)(O)NP(=O)(O)O)[C@@H](O)[C@H]1O` [AMP-PNP], the Kd (usually a measure of binding affinity in units of concentration) amounted to 1270 ± 210 nM. As for `Nc1ncnc2c1ncn2[C@@H]1O[C@H](COP(=O)(O)OP(=O)(O)O)[C@@H](O)[C@H]1O` [ADP], the figure is 885 ± 49 nM.

The record behind these values is PMC4538832, “Structures of the T. brucei kRNA editing factor MRB1590 reveal unique RNA-binding pore motif contained within an ABC-ATPase fold” (Nucleic Acids Research, 2015).
